Reference: patent US20130102595A1 (Curis, Inc., priority 2011, published 2013)

Legend:
PI3Kα (p110α/p85α) = molecular target: T1, PI3Kα (p110α/p85α) (Homo sapiens, UniProt P42336); assay: PI3Kα ADP-Glo assay; type: biochemical; settings: 20 μM PIP2, 10 μM ATP, 30 minutes
T1 construct: GST (N); made in house; host or cells: Baculovirus-infected Sf9 cells
Protocol: (A) an In Vitro Assay which Determines the Ability of a Test Compound to Inhibit PI3Kα.
Activity of PI3Kα was measured using ADP-Glo assay from Promega. PI3Kα, a complex of N-terminal GST-tagged recombinant full-length human p110α (GenBank, Accession No. U79143) and N-terminal His tagged recombinant full length human p85a (GenBank Accession No. XM—043865) were co-expressed in a Baculovirus infected Sf9 cell expression system. The ADP-Glo assay was performed to measure the amount of ADP generated from ATP hydrolysis coupled with PIP2 phosphorylation by the purified recombinant PI3Kα (p110α/p85α). PI3Kα was incubated with 20 μM PIP2 substrate in the reaction buffer (50 mM HEPES, pH 7.4, 150 mM NaCl, 5 mM MgCl2, 1 mM DTT, 3 uM Naorthovanadate, 10 μM ATP and 0.5% DMSO) for 30 minutes at room temperature. The ADP generated was then detected by ADP-Glo assay from Promega, a luminescent ADP detection assay. The ADP-Glo assay is performed in two steps; first, after the kinase reaction, ADP-Glo Reagent is added to terminate the kinase reaction and deplete the remaining ATP. Second, the Kinase Detection Reagent is added to simultaneously convert ADP to ATP and allow the newly synthesized ATP to be measured using a luciferase/luciferin reaction.

[1] = tested on: HDACs (HeLa cell nuclear extracts); assay: HDAC enzymatic activity, Biomol Color de Lys system; type: biochemical; settings: 1 hour, 25° C.
Protocol: (E) an In Vitro Assay which Determines the Ability of a Test Compound to Inhibit HDAC Enzymatic Activity.
HDAC inhibitory activity was assessed using the Biomol Color de Lys system (AK-500, Biomol, Plymouth Meeting, Pa.). Briefly, HeLa cell nuclear extracts were used as a source of HDACs. Different concentrations of test compounds were serially diluted in dimethylsulphoxide (DMSO) and added to HeLa cell nuclear extracts in the presence of a colorimetric artificial substrate. Final assay condition contained 50 mM Tris/Cl, pH 8.0, 137 mM NaCl, 2.7 mM KCl and 1 mM MgCl2. Reactions were carried in room temperature (25° C.) for 1 hour before addition of developer for termination. Relative enzyme activity was measured in the WALLAC Victor II 1420 microplate reader as fluorescence intensity (excitation: 350-380 nm; emission: 440-460 nm). Data were analyzed using GraphPad Prism (v4.0a) with a sigmoidal dose response curve fitting for IC50 calculation.

T1 sequence (P42336 whole entry): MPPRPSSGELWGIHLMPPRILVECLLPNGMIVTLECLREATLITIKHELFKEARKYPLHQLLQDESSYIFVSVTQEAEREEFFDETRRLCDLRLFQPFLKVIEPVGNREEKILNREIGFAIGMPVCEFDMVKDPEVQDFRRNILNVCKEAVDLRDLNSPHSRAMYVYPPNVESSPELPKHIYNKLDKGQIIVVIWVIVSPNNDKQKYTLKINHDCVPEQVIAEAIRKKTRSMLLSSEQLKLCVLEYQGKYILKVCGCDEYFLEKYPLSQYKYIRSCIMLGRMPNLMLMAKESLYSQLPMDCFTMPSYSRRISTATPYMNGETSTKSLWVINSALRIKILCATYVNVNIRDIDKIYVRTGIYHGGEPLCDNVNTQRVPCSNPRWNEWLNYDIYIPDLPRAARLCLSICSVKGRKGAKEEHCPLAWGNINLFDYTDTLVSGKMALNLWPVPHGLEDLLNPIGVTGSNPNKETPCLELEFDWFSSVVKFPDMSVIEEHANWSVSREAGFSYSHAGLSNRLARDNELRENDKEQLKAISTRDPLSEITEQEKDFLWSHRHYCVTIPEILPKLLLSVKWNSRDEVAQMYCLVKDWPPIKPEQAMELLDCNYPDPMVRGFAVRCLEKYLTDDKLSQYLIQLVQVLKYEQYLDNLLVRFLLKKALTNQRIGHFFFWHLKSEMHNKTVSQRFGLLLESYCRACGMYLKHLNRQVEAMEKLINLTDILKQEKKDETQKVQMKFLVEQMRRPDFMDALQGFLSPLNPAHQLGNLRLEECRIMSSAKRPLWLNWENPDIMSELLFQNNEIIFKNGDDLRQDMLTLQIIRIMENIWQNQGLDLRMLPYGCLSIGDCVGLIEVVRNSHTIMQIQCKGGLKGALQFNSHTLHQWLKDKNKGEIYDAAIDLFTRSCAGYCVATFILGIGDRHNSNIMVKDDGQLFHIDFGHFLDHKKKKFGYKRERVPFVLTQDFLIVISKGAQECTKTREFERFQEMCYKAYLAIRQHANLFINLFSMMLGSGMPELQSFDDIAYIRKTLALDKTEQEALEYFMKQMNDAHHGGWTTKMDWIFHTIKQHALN
T1 sequence (P27986 whole entry partner): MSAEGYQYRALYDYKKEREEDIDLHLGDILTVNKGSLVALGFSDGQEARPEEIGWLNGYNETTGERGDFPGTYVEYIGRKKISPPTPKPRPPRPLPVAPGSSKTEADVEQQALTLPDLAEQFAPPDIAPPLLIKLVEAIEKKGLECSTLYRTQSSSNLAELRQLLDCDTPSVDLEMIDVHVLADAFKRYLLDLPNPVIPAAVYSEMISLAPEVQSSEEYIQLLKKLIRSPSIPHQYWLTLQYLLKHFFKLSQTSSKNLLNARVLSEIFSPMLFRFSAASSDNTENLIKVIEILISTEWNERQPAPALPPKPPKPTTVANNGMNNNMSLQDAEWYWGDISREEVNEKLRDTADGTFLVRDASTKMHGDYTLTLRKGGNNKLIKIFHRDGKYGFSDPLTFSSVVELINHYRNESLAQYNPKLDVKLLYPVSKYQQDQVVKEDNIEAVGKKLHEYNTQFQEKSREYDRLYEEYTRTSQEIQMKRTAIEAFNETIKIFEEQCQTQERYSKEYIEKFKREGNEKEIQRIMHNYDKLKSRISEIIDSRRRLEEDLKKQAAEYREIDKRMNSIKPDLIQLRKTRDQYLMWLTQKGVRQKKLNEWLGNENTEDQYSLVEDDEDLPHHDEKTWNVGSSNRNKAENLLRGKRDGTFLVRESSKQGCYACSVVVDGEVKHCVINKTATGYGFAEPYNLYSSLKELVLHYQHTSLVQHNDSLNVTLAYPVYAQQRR

## Cc1c(CN(C)c2ncc(C(=O)NO)cn2)sc2c(N3CCOCC3)nc(-c3cccc4[nH]ncc34)nc12 [Compound 68]
PI3Kα (p110α/p85α)
  IC50: 100 to 1000 nM
[1]
  IC50: < 100 nM

## CC(C)(Nc1ncc(C(=O)NO)cn1)c1cc2nc(-c3cccc4[nH]ncc34)nc(N3CCOCC3)c2s1 [Compound 71]
PI3Kα (p110α/p85α)
  IC50: 100 to 1000 nM
[1]
  IC50: < 100 nM

## O=C(NO)c1cnc(NCc2cc3cc(-c4cccc5[nH]ncc45)nc(N4CCOCC4)c3s2)nc1 [Compound 73]
PI3Kα (p110α/p85α)
  IC50: 100 to 1000 nM
[1]
  IC50: < 100 nM

## CN(Cc1cc2cc(-c3cccc4[nH]ncc34)nc(N3CCOCC3)c2s1)c1ncc(C(=O)NO)cn1 [Compound 74]
PI3Kα (p110α/p85α)
  IC50: 100 to 1000 nM
[1]
  IC50: < 100 nM

## CN(Cc1cc2nc(-c3cccc4[nH]ncc34)nc(N3CCOCC3)c2s1)c1ncc(/C=C/C(=O)NO)cn1 [Compound 75]
PI3Kα (p110α/p85α)
  IC50: < 100 nM
[1]
  IC50: 100 to 1000 nM

## CN(Cc1cc2nc(-c3cccc4[nH]ncc34)nc(N3CCOCC3)c2s1)c1ccc(C(=O)NO)cc1 [Compound 79]
PI3Kα (p110α/p85α)
  IC50: < 100 nM
[1]
  IC50: < 100 nM

## O=C(O)CN(Cc1cc2nc(-c3cccc4[nH]ncc34)nc(N3CCOCC3)c2s1)c1ncc(C(=O)NO)cn1 [Compound 88]
PI3Kα (p110α/p85α)
  IC50: < 100 nM
[1]
  IC50: 100 to 1000 nM

## COCCN(Cc1cc2nc(-c3cccc4[nH]ncc34)nc(N3CCOCC3)c2s1)c1ncc(C(=O)NO)cn1 [Compound 90, 2-(((2-(1H-indazol-4-yl)-4-morpholinothieno[3,2-d]pyrimidin-6-yl)methyl)(2-methoxyethyl)amino)-N-hydroxypyrimidine-5-carboxamide]
PI3Kα (p110α/p85α)
  IC50: < 100 nM
[1]
  IC50: < 100 nM

## O=C(NO)c1cnc(N(CCCO)Cc2cc3nc(-c4cccc5[nH]ncc45)nc(N4CCOCC4)c3s2)nc1 [Compound 91]
PI3Kα (p110α/p85α)
  IC50: < 100 nM
[1]
  IC50: < 100 nM

## CCN(Cc1cc2nc(-c3cccc4[nH]ncc34)nc(N3CCOCC3)c2s1)c1ncc(C(=O)NO)cn1 [Compound 92]
PI3Kα (p110α/p85α)
  IC50: < 100 nM
[1]
  IC50: < 100 nM

## NCCN(Cc1cc2nc(-c3cccc4[nH]ncc34)nc(N3CCOCC3)c2s1)c1ncc(C(=O)NO)cn1 [Compound 94]
PI3Kα (p110α/p85α)
  IC50: < 100 nM
[1]
  IC50: < 100 nM

## CN(C)CCN(Cc1cc2nc(-c3cccc4[nH]ncc34)nc(N3CCOCC3)c2s1)c1ncc(C(=O)NO)cn1 [Compound 95]
PI3Kα (p110α/p85α)
  IC50: < 100 nM
[1]
  IC50: 100 to 1000 nM

## CC(=O)NCCN(Cc1cc2nc(-c3cccc4[nH]ncc34)nc(N3CCOCC3)c2s1)c1ncc(C(=O)NO)cn1 [Compound 96]
PI3Kα (p110α/p85α)
  IC50: < 100 nM
[1]
  IC50: < 100 nM

## NC(=O)CN(Cc1cc2nc(-c3cccc4[nH]ncc34)nc(N3CCOCC3)c2s1)c1ncc(C(=O)NO)cn1 [Compound 97]
PI3Kα (p110α/p85α)
  IC50: < 100 nM
[1]
  IC50: < 100 nM

## C#CCCN(Cc1cc2nc(-c3cccc4[nH]ncc34)nc(N3CCOCC3)c2s1)c1ncc(C(=O)NO)cn1 [Compound 98]
PI3Kα (p110α/p85α)
  IC50: < 100 nM
[1]
  IC50: < 100 nM

## O=C(NO)c1ccc2c(ccn2Cc2cc3nc(-c4cccc5[nH]ncc45)nc(N4CCOCC4)c3s2)c1 [Compound 105]
PI3Kα (p110α/p85α)
  IC50: > 10000 nM
[1]
  IC50: 100 to 1000 nM

## Cn1cc(CNc2cc3nc(-c4cccc5[nH]ncc45)nc(N4CCOCC4)c3s2)c2cc(C(=O)NO)ccc21 [Compound 106]
PI3Kα (p110α/p85α)
  IC50: < 100 nM
[1]
  IC50: 1000 to 10000 nM

## CN(Cc1cc2nc(-c3cnc(C(N)=O)nc3)nc(N3CCOCC3)c2s1)c1ncc(C(=O)NO)cn1 [Compound 122]
PI3Kα (p110α/p85α)
  IC50: < 100 nM
[1]
  IC50: < 100 nM

## CCN(CC)c1nc(-c2cccc3[nH]ncc23)nc2cc(CN(C)c3ncc(C(=O)NO)cn3)sc12 [Compound 158]
PI3Kα (p110α/p85α)
  IC50: > 10000 nM
[1]
  IC50: < 100 nM

## CN(C)c1nc(-c2cccc3[nH]ncc23)nc2cc(CN(C)c3ncc(C(=O)NO)cn3)sc12 [Compound 159]
PI3Kα (p110α/p85α)
  IC50: 1000 to 10000 nM
[1]
  IC50: < 100 nM

## COCCNc1nc(-c2cccc3[nH]ncc23)nc2cc(CN(C)c3ncc(C(=O)NO)cn3)sc12 [Compound 160]
PI3Kα (p110α/p85α)
  IC50: > 10000 nM
[1]
  IC50: < 100 nM

## CN(Cc1cc2nc(-c3cccc4[nH]ncc34)nc(NCCO)c2s1)c1ncc(C(=O)NO)cn1 [Compound 161]
PI3Kα (p110α/p85α)
  IC50: 100 to 1000 nM
[1]
  IC50: < 100 nM

## CN(Cc1cc2nc(-c3cccc4[nH]ncc34)nc(N(CCO)CCO)c2s1)c1ncc(C(=O)NO)cn1 [Compound 162]
PI3Kα (p110α/p85α)
  IC50: 1000 to 10000 nM
[1]
  IC50: < 100 nM

## COCCN(CCOC)c1nc(-c2cccc3[nH]ncc23)nc2cc(CN(C)c3ncc(C(=O)NO)cn3)sc12 [Compound 163]
PI3Kα (p110α/p85α)
  IC50: 100 to 1000 nM
[1]
  IC50: < 100 nM

## COc1ccc(Nc2nc(-c3cccc4[nH]ncc34)nc3cc(CN(C)c4ncc(C(=O)NO)cn4)sc23)cc1 [Compound 165]
PI3Kα (p110α/p85α)
  IC50: > 10000 nM
[1]
  IC50: < 100 nM

## COc1cccc(Nc2nc(-c3cccc4[nH]ncc34)nc3cc(CN(C)c4ncc(C(=O)NO)cn4)sc23)c1 [Compound 166]
PI3Kα (p110α/p85α)
  IC50: > 10000 nM
[1]
  IC50: < 100 nM

## COc1ccccc1Nc1nc(-c2cccc3[nH]ncc23)nc2cc(CN(C)c3ncc(C(=O)NO)cn3)sc12 [Compound 167]
PI3Kα (p110α/p85α)
  IC50: 100 to 1000 nM
[1]
  IC50: < 100 nM

## CN(Cc1cc2nc(-c3ccc4[nH]ccc4c3)nc(N3CCOCC3)c2s1)c1ncc(C(=O)NO)cn1 [Compound 192]
PI3Kα (p110α/p85α)
  IC50: 100 to 1000 nM
[1]
  IC50: < 100 nM

## CN(Cc1cc2nc(-c3ccc4c(c3)CCN4)nc(N3CCOCC3)c2s1)c1ncc(C(=O)NO)cn1 [Compound 193]
PI3Kα (p110α/p85α)
  IC50: > 10000 nM
[1]
  IC50: < 100 nM

## O=C(NO)c1ccc(CNCc2cc3nc(-c4cccc5[nH]ncc45)nc(N4CCOCC4)c3s2)cc1 [Compound 203]
PI3Kα (p110α/p85α)
  IC50: 100 to 1000 nM
[1]
  IC50: 100 to 1000 nM

## O=C(/C=C/c1ccc(CNCc2cc3nc(-c4cccc5[nH]ncc45)nc(N4CCOCC4)c3s2)cc1)NO [Compound 204]
PI3Kα (p110α/p85α)
  IC50: 100 to 1000 nM
[1]
  IC50: 100 to 1000 nM

## CN(Cc1cc2nc(-c3ccc(N)cc3)nc(N3CCOCC3)c2s1)c1ccc(C(=O)NO)cc1 [Compound 206]
PI3Kα (p110α/p85α)
  IC50: 100 to 1000 nM
[1]
  IC50: < 100 nM

## Nc1ccc(-c2nc(N3CCOCC3)c3sc(CN4CCN(c5ncc(C(=O)NO)cn5)CC4)cc3n2)cc1 [Compound 207]
PI3Kα (p110α/p85α)
  IC50: 100 to 1000 nM
[1]
  IC50: < 100 nM

## Nc1ccc(-c2nc(N3CCOCC3)c3sc(CNCc4ccc(C(=O)NO)cc4)cc3n2)cc1 [Compound 209]
PI3Kα (p110α/p85α)
  IC50: > 10000 nM
[1]
  IC50: < 100 nM

## Nc1ccc(-c2nc(N3CCOCC3)c3sc(CNCc4ccc(/C=C/C(=O)NO)cc4)cc3n2)cc1 [Compound 210]
PI3Kα (p110α/p85α)
  IC50: 100 to 1000 nM
[1]
  IC50: 100 to 1000 nM

## CCN(Cc1cc2nc(-c3ccc(N)cc3)nc(N3CCOCC3)c2s1)c1ncc(C(=O)NO)cn1 [Compound 215]
PI3Kα (p110α/p85α)
  IC50: 100 to 1000 nM
[1]
  IC50: < 100 nM

## O=C(/C=C/c1cccc(S(=O)(=O)Nc2cc3nc(-c4cccc5[nH]ncc45)nc(N4CCOCC4)c3s2)c1)NO [Compound 216]
PI3Kα (p110α/p85α)
  IC50: < 100 nM
[1]
  IC50: < 100 nM

## COc1ncc(-c2nc(N3CCOCC3)c3sc(NS(=O)(=O)c4ccc(/C=C/C(=O)NO)cc4)cc3n2)cn1 [Compound 219]
PI3Kα (p110α/p85α)
  IC50: < 100 nM
[1]
  IC50: < 100 nM

## COc1ncc(-c2nc(N3CCOCC3)c3sc(NS(=O)(=O)c4cccc(/C=C/C(=O)NO)c4)cc3n2)cn1 [Compound 220]
PI3Kα (p110α/p85α)
  IC50: < 100 nM
[1]
  IC50: < 100 nM

## CNc1ccc(-c2nc(N3CCOCC3)c3sc(NS(=O)(=O)c4ccc(/C=C/C(=O)NO)cc4)cc3n2)cn1 [Compound 223]
PI3Kα (p110α/p85α)
  IC50: < 100 nM
[1]
  IC50: < 100 nM

## CNc1ccc(-c2nc(N3CCOCC3)c3sc(NS(=O)(=O)c4cccc(/C=C/C(=O)NO)c4)cc3n2)cn1 [Compound 224]
PI3Kα (p110α/p85α)
  IC50: < 100 nM
[1]
  IC50: < 100 nM
